Each block holds one molecule with its values, some of them ahead of it. Residues, ends and D or L forms follow the SMILES beside them. *: point of attachment. pNA = O=[N+]([O-])c1ccc(N*)cc1; AMC = Cc1cc(=O)oc2cc(N*)ccc12; βNA = c1ccc2cc(N*)ccc2c1; Cbz = O=C(OCc1ccccc1)*
Tests used:
dDAP [1] = assay: pH dependence of substrate cleavage by dDAP; type: biochemical, Dictyostelium discoideum; conditions: unbound dDAP
Method: The pH optima for the GFpNA cleaving ability of dDAP was determined by adjusting a buffer consisting of 0.5M Tris®, phosphate and citrate with 10% HCl or 10% NaOH to various pHs within the range of 3 to 8. dDAP enzyme was diluted 20-fold in a buffer containing 100 mM cysteamine and 10 mM NaCl. Bovine DAP-I was diluted 200-fold in the same buffer. A GFpNA substrate solution (4 mM) was prepared in 2% dimethylformamide. In a microtiter plate, 0.025 ml of the Tris/phosphate/citrate buffer of various pH's was combined with 0.1 ml of diluted enzyme and with 0.1 ml of substrate solution. The rate of increase of absorbance at 410 nm was determined on a plate-reader over a 30 minute period.
Four mM GRpNA was prepared in 50 mM acetic acid, 50 mM glycine buffer, pH 5. HCl or NaOH was used to achieve a variety of pHs, from 5.1 to 2.3. To 180 ul of the above pH buffered substrate was added 5 ul dDAP (49 milliunits/ml final). The rate of increase of absorbance at 410 nm was monitored (using a plate-reader) and the rate of increase was compared with the pH of the reaction solution.
(§1) About 0.25 mM RRBNA or 0.25 mM Z-RRBNA was prepared in either 100 mM acetic acid, pH 3.5, or 100 mM citrate buffer, pH 5.0. To 2 ml of substrate was added dDAP or bovine DAP-I (about 15 milliunit/ml solution). Rates of cleavage (monitoring fluorescence increase at 410 nm with excitation at 340 nm) were monitored. […] The pH optimum for cleavage of RRBNA was probed by monitoring the rate of RRBNA cleavage using a buffer system consisting of 50 mM acetic acid and 50 mM citrate. Various pHs were achieved using HCl or NaOH and 1.5 ml volumes were made 2.0 with 0.5 ml of a 1 mM stock solution of RRBNA (final concentration of about 0.25 mM). dDAP was added (to about 15 mU/ml) and the rates of cleavage were determined.
The skilled artisan will recognize that the optimum pH for cleavage of a substrate not only depends upon the enzyme but the substrate itself, that is, the constitution of the removed dipeptide as well as the indicator group itself.

dDAP [2] = assay: Inhibition of GFpNA cleavage by sulfhydryl modifying agents; type: biochemical, Dictyostelium discoideum; conditions: 0.5, 5.0 or 50 mM inhibitor, 15 minutes at room temperature, pH 7; then 4 mM GFpNA, pH 3.5, 37° C.
Method: (§2) After purification or storage, dDAP enzymatic activity was usually monitored by following the cleavage of the chromogenic substrate GFpNA. Typically the assay was performed by diluting the enzyme at least 11 fold into 1.0 ml of 4 mM GFpNA in 0.05M acetic acid adjusted to pH 3.5. The rate of cleavage of Gly-Phe dipeptide was monitored at 37° C. by measuring the increase in absorbance at 405 nm. One unit of activity leads to a 0.90 OD change per minute under these conditions. Unit/ml estimates can be made assuming an extinction coefficient for free p-nitroanilide (pNA) of 9.9 mM-1 cm-1 at 405 nm.
(§3) The inhibition profile of dDAP toward the substrate GFpNA was compared to that of bovine spleen DAP-I using iodoacetamide and potassium tetrathionate, sulfhydryl modifying agents known to inhibit the activity of bovine spleen DAP-I. Samples of dDAP or bovine spleen DAP-I were incubated for 15 minutes at room temperature in final concentrations of 0, 0.5, 5.0 or 50 mM of either inhibitor at pH 7 in 100 mM Tris buffer. The incubated solutions were then diluted 21-fold with 4 mM GFpNA, pH 3.5. The rate of cleavage was monitored by measuring the increase in absorbance at 405 nm at 37° C. Bovine DAP-I's rate of cleavage of GFpNA was decreased more than 90% by the exposure to 5 mM iodoacetamide and was 95% inhibited by 5 mM potassium tetrathionate.

bovine spleen DAP-I = biological target: T1, bovine spleen DAP-I (Bos taurus, UniProt Q3ZCJ8); assay: as above; type: biochemical; conditions: 5 mM inhibitor, 15 minutes at room temperature, pH 7; then 4 mM GFpNA, pH 3.5, 37° C.; read-out: decrease (inhibition) of rate of cleavage of GFpNA
T1 construct: bovine spleen DAP-I; from tissue; host or cells: bovine spleen
T1 sequence (Q3ZCJ8 231-394 limits assumed): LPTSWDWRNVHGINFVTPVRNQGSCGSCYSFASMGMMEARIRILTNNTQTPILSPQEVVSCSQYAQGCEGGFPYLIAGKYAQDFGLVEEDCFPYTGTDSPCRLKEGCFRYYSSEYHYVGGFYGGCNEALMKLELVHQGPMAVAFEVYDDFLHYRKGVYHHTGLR
T1 sequence (Q3ZCJ8 395-463 limits assumed): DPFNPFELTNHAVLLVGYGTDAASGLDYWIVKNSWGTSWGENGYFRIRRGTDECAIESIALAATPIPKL
T1 sequence (Q3ZCJ8 25-143 limits assumed): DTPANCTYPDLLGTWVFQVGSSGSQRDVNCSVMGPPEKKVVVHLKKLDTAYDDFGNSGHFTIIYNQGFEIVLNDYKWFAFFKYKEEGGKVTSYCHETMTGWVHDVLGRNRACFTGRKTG
Method: as §2, §3

bovine DAP-I = biological target: T2, bovine DAP-I (Bos taurus, UniProt Q3ZCJ8); assay: Cleavage of RRBNA and Z-RRBNA (fluorescence increase); type: biochemical; conditions: about 0.25 mM substrate, pH 3.5 or pH 5.0, about 15 milliunit/ml enzyme
T2 construct: bovine spleen DAP-I; from tissue; host or cells: bovine spleen
T2 sequence (Q3ZCJ8 231-394 limits assumed): as the sequence (Q3ZCJ8 231-394 limits assumed) above
T2 sequence (Q3ZCJ8 395-463 limits assumed): as the sequence (Q3ZCJ8 395-463 limits assumed) above
T2 sequence (Q3ZCJ8 25-143 limits assumed): as the sequence (Q3ZCJ8 25-143 limits assumed) above
Method: as §1

dDAP [3] = assay: as above; type: biochemical, Dictyostelium discoideum; conditions: about 0.25 mM substrate, pH 3.5 or pH 5.0, about 15 milliunit/ml enzyme
Method: as §1

Compound: Cc1cc(=O)oc2cc(NC(=O)[C@H](CCCNC(=N)N)NC(=O)CN)ccc12 [Gly-Arg-7-amido-4-methylcoumarin] (H-Gly-Arg-{AMC})
pH optimum for cleavage of the substrate (dDAP [1]): ~5 pH

Compound: O=S(=O)([O-])SSS(=O)(=O)[O-].[K+].[K+] [potassium tetrathionate]
inhibition of GFpNA cleavage (dDAP [2]): no evidence of significant inhibition

Compound: NC(=O)CI [iodoacetamide]
inhibition at 5000 µM (bovine spleen DAP-I): > 90%
inhibition of GFpNA cleavage (dDAP [2]): no evidence of significant inhibition

Compound: NCC(=O)N[C@@H](Cc1ccccc1)C(=O)Nc1ccc([N+](=O)[O-])cc1 [GFpNA, Gly-Phe p-nitroanilide] (H-Gly-Phe-pNA)
pH optimum for cleavage of the substrate (dDAP [1]): ~3.5 pH

cleavage of substrate (bovine DAP-I): unable to cleave
Compound: N=C(N)NCCC[C@H](NC(=O)OCc1ccccc1)C(=O)N[C@@H](CCCNC(=N)N)C(=O)Nc1ccc2ccccc2c1 [Z-RRBNA, Benzyioxycarbonyl-RRBNA] (Cbz-Arg-Arg-βNA)
cleavage of substrate (dDAP [3]): unable to cleave

cleavage of substrate (bovine DAP-I): unable to cleave
Compound: N=C(N)NCCC[C@H](NC(=O)[C@@H](N)CCCNC(=N)N)C(=O)Nc1ccc2ccccc2c1 [RRBNA, Arg-Arg-β-naphthylamide] (H-Arg-Arg-βNA)
cleavage of substrate (dDAP [3]): able to effectively cleave
activity over the pH range (dDAP [1]): significant activity seen over the entire range probed (pH 3.5 to pH 5.7)

Compound: N=C(N)NCCC[C@H](NC(=O)CN)C(=O)Nc1ccc([N+](=O)[O-])cc1 [GRpNA, Gly-Arg-pNA] (H-Gly-Arg-pNA)
activity over the pH range (dDAP [1]): little activity below pH 2.5 or above pH 5
pH optimum for cleavage of the substrate (dDAP [1]; listed as G1y-Arg-pNA): ~3.5 pH

From patent US5573923A, “Method for removing N-terminal dipeptides from precursor polypeptides with immobilized dipeptidylaminopeptidase from dictyostelium discoideum” (Eli Lilly and Company, priority 1993, dated 1996)
